For test [1], the target named is T1, human EP4 receptor (Homo sapiens, UniProt P35408).
T1 construct: expressed in transfected cells
The test is described as follows: Recombinant human EP4 receptor binding assay (HEK-293-EBNA stable transfectants). Particulars: read-out: Binding Data (IC50 in nM) hEP4. The protocol: (§1) Human Recombinant EP4 Receptor: Stable Transfectants.
(§2) Plasmids encoding the human EP4 receptor were prepared by cloning the respective coding sequences into the eukaryotic expression vector pCEP4 (Invitrogen). The pCEP4 vector contains an Epstein Barr virus (EBV) origin of replication, which permits episomal replication in primate cell lines expressing EBV nuclear antigen (EBNA-1). It also contains a hygromycin resistance gene that is used for eukaryotic selection. The cells employed for stable transfection were human embryonic kidney cells (HEK-293) that were transfected with and express the EBNA-1 protein. These HEK-293-EBNA cells (Invitrogen) were grown in medium containing Geneticin (G418) to maintain expression of the EBNA-1 protein. HEK-293 cells were grown in DMEM with 10% fetal bovine serum (FBS), 250 μg ml^−1 G418 (Life Technologies) and 200 μg ml^−1 gentamicin or penicillin/streptomycin.
(§3) For transfection, the cells were grown to 50-60% confluency on 10 cm plates. The plasmid pCEP4 incorporating cDNA inserts for the respective human prostanoid receptor (20 μg) was added to 500 μl of 250 mM CaCl2. HEPES buffered saline×2 (2×HBS, 280 mM NaCl, 20 mM HEPES acid, 1.5 mM Na2 HPO4, pH 7.05-7.12) was then added dropwise to a total of 500 μl, with continuous vortexing at room temperature. After 30 min, 9 ml DMEM were added to the mixture. The DNA/DMEM/calcium phosphate mixture was then added to the cells, which had been previously rinsed with 10 ml PBS. The cells were then incubated for 5 hr at 37° C. in humidified 95% air/5% CO2. The calcium phosphate solution was then removed and the cells were treated with 10% glycerol in DMEM for 2 min. The glycerol solution was then replaced by DMEM with 10% FBS. The cells were incubated overnight and the medium was replaced by DMEM/10% FBS containing 250 μg ml^−1 G418 and penicillin/streptomycin. The following day hygromycin B was added to a final concentration of 200 μg ml^−1.
(§4) Ten days after transfection, hygromycin B resistant clones were individually selected and transferred to a separate well on a 24 well plate. At confluence each clone was transferred to one well of a 6 well plate, and then expanded in a 10 cm dish. Cells were maintained under continuous hygromycin selection until use.
(§5) Certain of the above compounds were tested for activity in the recombinant human EP4 receptor assay described above and the results are reported in Table 1, below.

The target in test [2] is T1, human EP4 receptor. The test is described as follows: Recombinant human EP4 receptor functional assay (HEK-293-EBNA stable transfectants). In kind it is cell-based. Particulars: read-out: Functional Data (EC50 in nM) hEP4. The protocol: as §1, §2, §3, §4, §5

T1 sequence (P35408 whole entry): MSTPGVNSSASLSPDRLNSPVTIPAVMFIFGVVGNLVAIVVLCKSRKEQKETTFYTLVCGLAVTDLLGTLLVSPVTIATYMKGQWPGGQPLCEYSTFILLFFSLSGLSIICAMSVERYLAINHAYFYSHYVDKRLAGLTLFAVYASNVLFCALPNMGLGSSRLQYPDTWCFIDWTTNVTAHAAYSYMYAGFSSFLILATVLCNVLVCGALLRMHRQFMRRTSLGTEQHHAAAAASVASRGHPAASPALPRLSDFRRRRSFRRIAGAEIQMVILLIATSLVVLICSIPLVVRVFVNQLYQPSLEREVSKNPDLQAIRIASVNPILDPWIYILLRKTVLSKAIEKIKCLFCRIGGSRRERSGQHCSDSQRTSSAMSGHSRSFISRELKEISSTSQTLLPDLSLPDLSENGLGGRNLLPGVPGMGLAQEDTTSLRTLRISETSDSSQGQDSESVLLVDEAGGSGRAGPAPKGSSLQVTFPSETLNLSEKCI

For `O=C(O)CCC/C=C\C[C@H]1C(=O)CC[C@@H](O)[C@@H]1/C=C/C(O)Cc1ccccc1` (stereo partly drawn) [Example 2, (Z)-7-[(1R,2R,3R)-3-Hydroxy-2-((E)-3-hydroxy-4-phenyl-but-1-enyl)-6-oxo-cyclohexyl]-hept-5-enoic acid], the IC50 in test [1] was found to be 100 nM. For the same molecule, the EC50 in test [2] worked out at 11 nM.
On to `O=C(O)CCC/C=C\C[C@H]1C(=O)CC[C@@H](O)[C@@H]1/C=C/C(O)CCc1sc2ccccc2c1Cl` (stereo partly drawn) [1 high Rf], for which, in test [1], the IC50 came to 200 nM. In test [2], the EC50 came out at 136 nM.
The matching figures for `O=C(O)CCC/C=C\C[C@H]1C(=O)CC[C@@H](O)[C@@H]1/C=C/C(O)Cc1csc2ccccc12` (stereo partly drawn) [Example 3, (Z)-7-[(1R,2R,3R)-2-((E)-4-Benzo[b]thiophen-3-yl-3-hydroxy-but-1-enyl)-3-hydroxy-6-oxo-cyclohexyl]-hept-5-enoic acid]: 1300 nM and 168 nM.
For `O=C(O)CCCC#CC[C@H]1C(=O)CC[C@@H](O)[C@@H]1/C=C/C(O)CCc1ccccc1` (stereo partly drawn) [Example 4, 7-[(1R,2R,3R)-3-Hydroxy-2-((E)-3-hydroxy-5-phenyl-pent-1-enyl)-6-oxo-cyclohexyl]-hept-5-ynoic acid], in test [1], the IC50 was 1000 nM. Further, in test [2], the EC50 stood at 214 nM.
In the case of `O=C(O)CCC/C=C\C[C@H]1C(=O)C=CC[C@@H]1/C=C/C(O)CCc1sc2ccccc2c1Cl` (stereo partly drawn) [Example 10, (Z)-7-{(1R,6R)-6-[(E)-5-(3-Chloro-benzo[b]thiophen-2-yl)-3-hydroxy-pent-1-enyl]-2-oxo-cyclohex-3-enyl}-hept-5-enoic acid], the IC50 in test [1] was 1800 nM. Further, in test [2], the EC50 was found to be 456 nM.
Consider `CCCCC[C@H](O)CC[C@H]1[C@H](O)CCC(=O)[C@@H]1CCCCCCC(=O)O` [Example 9, 7-[(1R,2R,3R)-3-Hydroxy-2-((S)-3-hydroxy-octyl)-6-oxo-cyclohexyl]-heptanoic acid], for which the IC50 in test [1] worked out at 600 nM. In addition, in test [2], the EC50 was 387 nM.
`O=C(O)CCC/C=C\C[C@@H]1[C@@H](/C=C/C(O)CCc2sc3ccccc3c2Cl)[C@H](O)CC[C@H]1Cl` (stereo partly drawn) [Example 6, (Z)-7-{(1R,2R,3R,6R)-6-Chloro-2-[(E)-5-(3-chloro-benzo[b]thiophen-2-yl)-3-hydroxy-pent-1-enyl]-3-hydroxy-cyclohexyl)-hept-5-enoic acid]: the concentration for half-maximal inhibition (IC50) in test [1] amounted to 35 nM. The EC50 in test [2] turned out to be 314 nM.
Consider `O=C(O)CCCC#CC[C@H]1C(=O)CC[C@@H](O)[C@@H]1/C=C/C(O)Cc1csc2ccccc12` (stereo partly drawn) [Example 8, 7-[(1R,2R,3R)-2-((E)-4-Benzo[b]thiophen-3-yl-3-hydroxy-but-1-enyl)-3-hydroxy-6-oxo-cyclohexyl]-hept-5-ynoic acid], for which the IC50 in test [1] came to 3500 nM. In addition, the EC50 in test [2] is 362 nM.
`O=C(O)CCC/C=C\C[C@H]1C(=O)CC[C@@H](O)[C@@H]1/C=C/C(O)CCc1sc2ccccc2c1Cl` (stereo partly drawn) [1 low Rf]: the IC50 in test [1] was 400 nM. The EC50 in test [2] turned out to be 67 nM.

As usually defined, the IC50 is the point on the concentration scale where inhibition reaches its midpoint. What is called EC50 is the concentration giving half of the maximal effect.

For the origin of these results see patent publication US7473704B2, “Cyclohexyl prostaglandin analogs as EP4-receptor agonists” (Allergan, Inc., priority 2003, dated 2009).
